Data reported in ChEMBL document CHEMBL1201862, “PubChem BioAssay data set” (2004).
Active and inactive are the calls of the source.

Tests used:
[1] = molecular target: Beta-galactosidase (Escherichia coli, UniProt Q8VNN2); type: functional
[2] = molecular target: T1, Kappa-type opioid receptor (Homo sapiens, UniProt P41145); type: functional
[3] = molecular target: T1, Kappa-type opioid receptor; type: functional; remark: listed apart in the source
[4] = molecular target: T2, Alkaline phosphatase, tissue-nonspecific isozyme (Homo sapiens, UniProt P05186); assay: TNAP enzyme inhibition by screening hits, dose response, selectivity assay for mouse IAP inhibitor project, biochemical, human TNAP, uHTS hits (AID 488906); type: functional
T2 sequence (P05186 whole entry): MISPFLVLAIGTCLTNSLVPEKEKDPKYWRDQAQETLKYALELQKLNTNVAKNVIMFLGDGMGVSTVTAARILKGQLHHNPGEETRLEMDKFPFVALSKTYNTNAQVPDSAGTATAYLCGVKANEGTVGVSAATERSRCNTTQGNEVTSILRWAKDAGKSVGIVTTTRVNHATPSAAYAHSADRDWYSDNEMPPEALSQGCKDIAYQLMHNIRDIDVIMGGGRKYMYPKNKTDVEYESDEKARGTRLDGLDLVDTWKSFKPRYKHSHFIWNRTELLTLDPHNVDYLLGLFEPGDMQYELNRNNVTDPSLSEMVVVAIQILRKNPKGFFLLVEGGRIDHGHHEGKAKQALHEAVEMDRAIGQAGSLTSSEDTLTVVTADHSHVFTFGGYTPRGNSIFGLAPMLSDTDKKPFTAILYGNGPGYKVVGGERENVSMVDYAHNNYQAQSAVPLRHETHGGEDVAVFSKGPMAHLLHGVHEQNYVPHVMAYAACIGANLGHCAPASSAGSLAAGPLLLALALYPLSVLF

[5] = molecular target: T3, Intestinal-type alkaline phosphatase (Homo sapiens, UniProt P09923); assay: activation of human intestinal alkaline phosphatase – biochemical, dose response (AID 488873); type: functional
[6] = molecular target: Intestinal-type alkaline phosphatase (Mus musculus, UniProt P24822); assay: PubChem AID 488785; type: functional
[7] = molecular target: T4, Small ubiquitin-related modifier 1 (Homo sapiens, UniProt P63165); assay: inhibitors of SUMO1 partner interactions, dose response, biochemical, FRET (AID 624383); type: functional; conditions: read-out: IC50_Mean
[8] = molecular target: DNA (cytosine-5)-methyltransferase 1 (Homo sapiens, UniProt P26358); assay: DNMT1 methyltransferase inhibitors, confirmation, biochemical, fluorescent molecular beacon (AID 602386); type: functional
[9] = molecular target: Induced myeloid leukemia cell differentiation protein Mcl-1 (Homo sapiens, UniProt Q07820); assay: MCL1-BIM BH3 interaction inhibitors, dose response, biochemical, fluorescence polarization, BIM-BH3 peptide, 1536-well (AID 2217)
[10] = molecular target: T4, Small ubiquitin-related modifier 1; assay: inhibitors of SUMO1 peptide binding, dose response, biochemical, fluorescence polarization, uHTS hits (AID 624382); type: functional; conditions: read-out: IC50_Mean
[11] = molecular target: Bcl-2-like protein 1 (Homo sapiens, UniProt Q07817); assay: BCL-XL inhibitors, dose response, selectivity assay for MCL1 inhibitor project, biochemical, fluorescence polarization, 1536-well (AID 2218)
[12] = inhibitors of SNCA 5'UTR-driven reporter translation, confirmation, H4 neuroglioma cells, luminescence (AID 1988); type: functional, cell-based
[13] = NIH-3T3 fibroblast cytotoxicity, dose response, cytotoxicity control, cell-based, fluorescence, Alamar Blue, secondary assay (AID 2327); type: functional;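 also: NIH-3T3 mouse fibroblasts cultured with fluconazole at 8 µg/mL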
[14] = THP-1 cell cytotoxicity, dose response, cytotoxicity control for non-replicating M. tuberculosis project (AID 489025); type: functional
[15] = Luminescence Cell-Based Dose Response HTS to Identify Inhibitors of 5'UTR Stem-Loop Driven Prion Protein mRNA Translation in H4 Neuroglioblastoma Cells. [Related pubchem assays: 1827 (Project Summary), 1813 (Primary HTS)]; type: functional
[16] = Vero E6 cell cytotoxicity, dose response, cytotoxicity control for non-replicating M. tuberculosis project, secondary assay (AID 492998); type: functional, VeroE6; conditions: Vero C1008
[17] = molecular target: ATP-dependent molecular chaperone HSP82 (Candida albicans (strain WO-1) (Yeast), UniProt C4YTQ8); assay: loss of DOC-induced GRE-beta-galactosidase reporter signal, dose response, Hsp90 inhibitor project, S. cerevisiae, luminescence (AID 2400); type: functional, cell-based;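 also: beta-galactosidase luminescence from glucocorticoid response element reporter as proxy for Hsp90 function; inhibitor potency where signal loss means Hsp90 inhibition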
[18] = molecular target: Cytochrome P450 3A4 (Homo sapiens, UniProt P08684);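 also: CYP3A4 tested as one member of a cytochrome P450 panel screen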
[19] = molecular target: NACHT, LRR and PYD domains-containing protein 3 (Homo sapiens, UniProt Q96P20); assay: NALP3 inhibitors in yeast, dose response, luminescent (AID 488799); type: functional
[20] = molecular target: Serine/threonine-protein phosphatase (Candida dubliniensis (strain CD36 / CBS 7987 / NCPF 3949 / NRRLY-17841) (Yeast), UniProt B9W6M3); assay: calcineurin pathway inhibitors in yeast reporter, dose response, S. cerevisiae, CDRE-lacZ, luminescence, secondary (AID 2388); type: functional, cell-based;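 also: yeast reporter cells carrying a calcineurin-responsive lacZ construct stimulated with calcium chloride; luminescent beta-galactosidase reporter signal in whole cells rather than isolated phosphatase activity; potency for inhibition where a drop in reporter signal means calcineurin blockade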
[21] = inhibitors of firefly luciferase expression or activity, dose response, H4 neuroglioma cells, luminescence (AID 1990); type: functional, cell-based
[22] = molecular target: T5, Heat shock factor protein 1 (Mus musculus, UniProt P38532); assay: inhibition of MG132-induced HSE-luciferase signal, confirmation, cell-based, NIH3T3, luminescence, dose retest (AID 2382); type: functional;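 also: NIH3T3 fibroblasts with HSF1-driven luciferase reporter stressed by proteasome inhibitor MG132; luminescence from HSF1-driven luciferase expression after 8 hours of MG132 stress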
T5 sequence (P38532 whole entry): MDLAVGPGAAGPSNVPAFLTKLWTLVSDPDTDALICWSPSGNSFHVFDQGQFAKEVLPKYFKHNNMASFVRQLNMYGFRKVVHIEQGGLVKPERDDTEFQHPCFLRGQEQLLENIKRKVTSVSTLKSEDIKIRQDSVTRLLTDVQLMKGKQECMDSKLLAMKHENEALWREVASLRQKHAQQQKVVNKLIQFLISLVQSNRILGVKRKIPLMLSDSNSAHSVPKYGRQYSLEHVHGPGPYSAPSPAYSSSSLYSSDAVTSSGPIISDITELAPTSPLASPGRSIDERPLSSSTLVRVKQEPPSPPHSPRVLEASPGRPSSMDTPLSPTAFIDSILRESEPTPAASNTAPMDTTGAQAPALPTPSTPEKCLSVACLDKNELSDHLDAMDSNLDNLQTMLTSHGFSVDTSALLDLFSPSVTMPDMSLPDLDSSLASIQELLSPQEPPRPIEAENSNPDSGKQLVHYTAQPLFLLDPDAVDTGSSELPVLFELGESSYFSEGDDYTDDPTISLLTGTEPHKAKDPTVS

[23] = cells; type: functional
[24] = HepG2 cell cytotoxicity, dose response, cytotoxicity control for non-replicating M. tuberculosis project (AID 489018); type: functional; conditions: Mycobacterium tuberculosis
[25] = C. albicans growth with fluconazole, confirmation, fluorescence, retest (AID 2467); type: functional, cell-based
[26] = molecular target: T6, Tyrosine-protein phosphatase non-receptor type 7 (Homo sapiens, UniProt P35236); assay: redox-dependent HePTP inhibition, mechanism study, biochemical, fluorescence (AID 2068); type: functional
T6 sequence (P35236 whole entry): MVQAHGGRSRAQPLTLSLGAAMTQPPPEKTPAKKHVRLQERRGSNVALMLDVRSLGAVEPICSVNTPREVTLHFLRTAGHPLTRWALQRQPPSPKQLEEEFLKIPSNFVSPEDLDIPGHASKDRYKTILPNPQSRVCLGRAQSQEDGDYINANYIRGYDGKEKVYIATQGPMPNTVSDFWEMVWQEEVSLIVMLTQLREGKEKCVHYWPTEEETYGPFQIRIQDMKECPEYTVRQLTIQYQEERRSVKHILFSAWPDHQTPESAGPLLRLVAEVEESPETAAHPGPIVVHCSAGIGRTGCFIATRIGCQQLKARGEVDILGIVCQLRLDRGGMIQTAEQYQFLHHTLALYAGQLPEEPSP

[27] = molecular target: Polyadenylate-binding protein 1 (Homo sapiens, UniProt P11940); assay: PABP inhibition in translation initiation, SAR follow-up (AID 435018); type: functional
[28] = molecular target: Eukaryotic translation initiation factor 4H (Homo sapiens, UniProt Q15056); assay: eIF4H inhibition in translation initiation, SAR follow-up (AID 435011); type: functional
[29] = molecular target: T1, Kappa-type opioid receptor; assay: SAR analysis of small molecule agonists of the kappa opioid receptor via a luminescent beta-arrestin assay - Set 2. [Related pubchem assays (depositor defined):AID1777, AID1785, AID1786, AID1966, AID2133, AID2136, AID2284, AID449737]; type: functional
[30] = molecular target: DNA dC->dU-editing enzyme APOBEC-3A (Homo sapiens, UniProt P31941); assay: APOBEC3A DNA deaminase inhibitors, dose response, biochemical (AID 504722); type: functional
[31] = molecular target: DNA dC->dU-editing enzyme APOBEC-3G (Homo sapiens, UniProt Q9HC16); assay: Dose Response confirmation of small molecule APOBEC3G DNA Deaminase Inhibitors via a fluorescence-based single-stranded DNA deaminase assay. [Related pubchem assays (depositor defined):AID493012, AID493028]; type: functional
[32] = molecular target: T7, Short transient receptor potential channel 4 (Mus musculus, UniProt Q9QUQ5); assay: TRPC4 positive allosteric modulators, dose response, cell-based, HEK293 TRPC4/mu-opioid, Fluo-4 calcium, EC20 DAMGO (AID 434941); type: functional
T7 sequence (Q9QUQ5 whole entry): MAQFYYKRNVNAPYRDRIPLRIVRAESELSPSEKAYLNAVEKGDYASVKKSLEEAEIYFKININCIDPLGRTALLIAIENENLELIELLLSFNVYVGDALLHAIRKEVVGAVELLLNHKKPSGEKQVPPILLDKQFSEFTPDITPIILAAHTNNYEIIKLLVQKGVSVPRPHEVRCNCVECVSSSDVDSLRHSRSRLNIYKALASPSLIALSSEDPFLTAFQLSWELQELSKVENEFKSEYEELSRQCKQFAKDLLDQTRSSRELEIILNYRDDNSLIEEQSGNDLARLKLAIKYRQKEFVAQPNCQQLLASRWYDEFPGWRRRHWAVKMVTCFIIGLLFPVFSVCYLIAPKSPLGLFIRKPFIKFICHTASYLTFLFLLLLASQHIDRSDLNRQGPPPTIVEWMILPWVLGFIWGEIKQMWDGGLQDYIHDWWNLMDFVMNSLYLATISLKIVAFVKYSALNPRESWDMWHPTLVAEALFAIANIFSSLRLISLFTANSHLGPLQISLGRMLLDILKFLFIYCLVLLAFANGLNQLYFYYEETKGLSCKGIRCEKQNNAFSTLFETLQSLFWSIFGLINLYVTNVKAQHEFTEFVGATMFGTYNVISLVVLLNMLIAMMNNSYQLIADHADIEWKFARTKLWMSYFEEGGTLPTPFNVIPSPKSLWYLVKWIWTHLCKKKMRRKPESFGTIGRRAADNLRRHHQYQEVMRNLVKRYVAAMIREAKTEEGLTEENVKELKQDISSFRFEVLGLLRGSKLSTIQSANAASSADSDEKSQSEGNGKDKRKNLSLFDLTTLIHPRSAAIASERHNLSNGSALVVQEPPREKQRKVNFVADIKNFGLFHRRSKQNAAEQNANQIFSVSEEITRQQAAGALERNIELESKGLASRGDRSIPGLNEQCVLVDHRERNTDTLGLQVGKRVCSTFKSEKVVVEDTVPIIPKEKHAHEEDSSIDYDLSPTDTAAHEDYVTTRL

[33] = molecular target: Cytochrome P450 2C9 (Homo sapiens, UniProt P11712)
[34] = molecular target: T3, Intestinal-type alkaline phosphatase; assay: Dose Response confirmation of uHTS hits from a small molecule inhibitors of human intestinal alkaline phosphatase via a luminescent assay. [Related pubchem assays (depositor defined):AID2544, AID2574]; type: functional
[35] = molecular target: Integrin alpha-L (Mus musculus, UniProt P24063); assay: modulators of CD8 T cell-vesicle binding, dose response, powder samples, mouse 2C CD8+ cells (AID 504565); type: functional
[36] = system: T-cell; assay: inhibitors of CD8+ T cell–vesicle binding, dose response, mouse 2C CD8+ T cells, flow cytometry (AID 485284); type: functional

T1 sequence (P41145 whole entry): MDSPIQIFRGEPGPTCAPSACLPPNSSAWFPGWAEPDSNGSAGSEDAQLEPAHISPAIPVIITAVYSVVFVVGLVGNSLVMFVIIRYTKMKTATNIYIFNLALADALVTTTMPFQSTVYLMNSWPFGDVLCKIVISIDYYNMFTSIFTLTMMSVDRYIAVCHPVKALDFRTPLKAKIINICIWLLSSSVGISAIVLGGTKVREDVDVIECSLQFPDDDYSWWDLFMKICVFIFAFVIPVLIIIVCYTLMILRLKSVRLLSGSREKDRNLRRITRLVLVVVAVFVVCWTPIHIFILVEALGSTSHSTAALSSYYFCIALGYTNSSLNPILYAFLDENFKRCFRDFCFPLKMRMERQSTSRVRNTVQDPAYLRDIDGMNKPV
T3 sequence (P09923 whole entry): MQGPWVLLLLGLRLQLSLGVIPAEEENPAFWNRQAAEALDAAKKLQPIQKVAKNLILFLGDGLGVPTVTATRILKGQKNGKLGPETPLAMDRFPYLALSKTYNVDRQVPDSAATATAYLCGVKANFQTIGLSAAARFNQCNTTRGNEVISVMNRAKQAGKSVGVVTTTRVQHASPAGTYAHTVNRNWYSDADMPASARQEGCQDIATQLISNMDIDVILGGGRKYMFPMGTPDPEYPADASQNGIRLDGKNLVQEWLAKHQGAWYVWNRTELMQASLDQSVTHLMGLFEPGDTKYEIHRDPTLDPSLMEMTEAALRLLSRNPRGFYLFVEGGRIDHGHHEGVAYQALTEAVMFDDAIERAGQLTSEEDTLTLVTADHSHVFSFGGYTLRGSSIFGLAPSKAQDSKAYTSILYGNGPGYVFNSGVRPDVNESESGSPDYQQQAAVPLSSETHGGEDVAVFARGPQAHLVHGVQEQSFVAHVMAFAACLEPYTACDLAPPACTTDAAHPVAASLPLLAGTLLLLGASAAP
T4 sequence (P63165 whole entry): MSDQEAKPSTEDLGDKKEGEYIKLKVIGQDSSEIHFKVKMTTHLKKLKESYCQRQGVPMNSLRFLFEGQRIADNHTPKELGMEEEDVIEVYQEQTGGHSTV
Chain of Integrin alpha-L (P24063 whole entry): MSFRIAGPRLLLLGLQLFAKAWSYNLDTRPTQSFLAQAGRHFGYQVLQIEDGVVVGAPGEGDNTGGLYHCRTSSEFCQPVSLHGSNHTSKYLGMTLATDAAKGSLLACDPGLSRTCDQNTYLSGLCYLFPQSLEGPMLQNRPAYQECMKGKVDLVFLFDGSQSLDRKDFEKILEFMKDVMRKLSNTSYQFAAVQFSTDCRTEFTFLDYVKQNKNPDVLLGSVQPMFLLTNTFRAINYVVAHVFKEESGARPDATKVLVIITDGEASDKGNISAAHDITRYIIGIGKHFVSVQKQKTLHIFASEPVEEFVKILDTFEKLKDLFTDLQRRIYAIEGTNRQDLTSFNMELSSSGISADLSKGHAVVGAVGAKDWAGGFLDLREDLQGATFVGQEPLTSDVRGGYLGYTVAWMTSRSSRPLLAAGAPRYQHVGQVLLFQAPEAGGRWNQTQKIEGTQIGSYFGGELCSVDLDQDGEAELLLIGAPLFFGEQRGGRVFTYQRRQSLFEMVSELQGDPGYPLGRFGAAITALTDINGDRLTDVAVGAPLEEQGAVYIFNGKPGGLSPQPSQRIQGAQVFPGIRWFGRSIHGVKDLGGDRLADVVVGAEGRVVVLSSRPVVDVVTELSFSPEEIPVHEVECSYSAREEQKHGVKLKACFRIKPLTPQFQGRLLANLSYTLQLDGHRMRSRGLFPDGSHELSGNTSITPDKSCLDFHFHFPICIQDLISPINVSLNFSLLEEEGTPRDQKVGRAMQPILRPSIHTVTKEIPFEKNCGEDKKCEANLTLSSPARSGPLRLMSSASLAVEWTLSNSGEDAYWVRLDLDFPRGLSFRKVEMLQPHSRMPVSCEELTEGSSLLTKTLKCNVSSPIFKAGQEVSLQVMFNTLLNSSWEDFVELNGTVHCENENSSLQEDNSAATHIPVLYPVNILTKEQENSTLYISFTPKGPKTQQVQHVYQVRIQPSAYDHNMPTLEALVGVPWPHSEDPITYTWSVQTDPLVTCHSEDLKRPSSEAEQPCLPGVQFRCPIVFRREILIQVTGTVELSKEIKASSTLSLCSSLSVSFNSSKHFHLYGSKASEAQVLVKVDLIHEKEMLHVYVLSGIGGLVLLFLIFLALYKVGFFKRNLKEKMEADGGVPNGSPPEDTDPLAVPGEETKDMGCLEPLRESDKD
Chain of Polyadenylate-binding protein 1 (P11940 whole entry): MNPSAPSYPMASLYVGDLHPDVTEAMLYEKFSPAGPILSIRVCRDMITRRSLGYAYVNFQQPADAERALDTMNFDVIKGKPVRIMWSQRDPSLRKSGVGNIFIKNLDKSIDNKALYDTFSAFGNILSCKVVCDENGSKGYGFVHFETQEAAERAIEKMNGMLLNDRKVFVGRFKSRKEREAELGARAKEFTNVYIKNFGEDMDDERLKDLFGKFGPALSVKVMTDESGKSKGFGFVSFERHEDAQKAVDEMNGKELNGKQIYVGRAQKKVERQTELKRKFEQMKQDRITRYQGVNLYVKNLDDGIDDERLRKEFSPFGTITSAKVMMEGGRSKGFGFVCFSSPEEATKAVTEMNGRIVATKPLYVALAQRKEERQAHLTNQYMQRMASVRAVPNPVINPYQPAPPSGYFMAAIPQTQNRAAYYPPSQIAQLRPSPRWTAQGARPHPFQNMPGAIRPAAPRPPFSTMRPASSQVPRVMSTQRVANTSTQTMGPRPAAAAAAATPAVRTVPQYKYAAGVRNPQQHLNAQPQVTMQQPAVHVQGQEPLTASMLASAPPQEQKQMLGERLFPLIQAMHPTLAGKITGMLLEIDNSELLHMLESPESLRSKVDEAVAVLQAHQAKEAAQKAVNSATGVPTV
Chain of DNA dC->dU-editing enzyme APOBEC-3G (Q9HC16 whole entry): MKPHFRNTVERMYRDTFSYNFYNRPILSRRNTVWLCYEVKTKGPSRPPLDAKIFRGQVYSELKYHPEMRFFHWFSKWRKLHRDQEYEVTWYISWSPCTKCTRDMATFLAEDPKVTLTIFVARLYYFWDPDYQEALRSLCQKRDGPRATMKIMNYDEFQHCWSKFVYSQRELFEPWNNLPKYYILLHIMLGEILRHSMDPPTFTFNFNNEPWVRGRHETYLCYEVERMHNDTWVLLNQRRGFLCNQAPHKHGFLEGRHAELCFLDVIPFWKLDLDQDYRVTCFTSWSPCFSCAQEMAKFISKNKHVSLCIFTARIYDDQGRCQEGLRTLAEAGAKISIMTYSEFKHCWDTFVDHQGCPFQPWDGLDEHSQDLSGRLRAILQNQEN
Chain of ATP-dependent molecular chaperone HSP82 (C4YTQ8 whole entry): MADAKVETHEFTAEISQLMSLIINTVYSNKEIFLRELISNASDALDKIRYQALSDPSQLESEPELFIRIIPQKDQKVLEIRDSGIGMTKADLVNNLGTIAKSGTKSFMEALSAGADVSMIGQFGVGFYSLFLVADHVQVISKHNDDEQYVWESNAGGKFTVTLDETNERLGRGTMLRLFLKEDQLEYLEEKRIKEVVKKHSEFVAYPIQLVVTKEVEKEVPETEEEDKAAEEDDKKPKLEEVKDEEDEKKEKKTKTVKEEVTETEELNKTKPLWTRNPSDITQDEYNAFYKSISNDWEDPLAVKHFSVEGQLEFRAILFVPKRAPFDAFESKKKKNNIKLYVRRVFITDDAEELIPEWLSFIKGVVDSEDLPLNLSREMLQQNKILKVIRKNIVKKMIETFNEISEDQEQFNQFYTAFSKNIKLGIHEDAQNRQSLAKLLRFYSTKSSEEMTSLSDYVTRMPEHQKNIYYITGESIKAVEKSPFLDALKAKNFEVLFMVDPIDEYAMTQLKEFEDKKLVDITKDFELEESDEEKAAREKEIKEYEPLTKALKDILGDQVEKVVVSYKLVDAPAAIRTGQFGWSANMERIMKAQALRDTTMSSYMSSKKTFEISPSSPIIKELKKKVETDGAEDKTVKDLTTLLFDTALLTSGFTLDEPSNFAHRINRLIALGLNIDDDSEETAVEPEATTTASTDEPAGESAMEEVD
Chain of Intestinal-type alkaline phosphatase (Mus musculus, UniProt P24822) (P24822 whole entry): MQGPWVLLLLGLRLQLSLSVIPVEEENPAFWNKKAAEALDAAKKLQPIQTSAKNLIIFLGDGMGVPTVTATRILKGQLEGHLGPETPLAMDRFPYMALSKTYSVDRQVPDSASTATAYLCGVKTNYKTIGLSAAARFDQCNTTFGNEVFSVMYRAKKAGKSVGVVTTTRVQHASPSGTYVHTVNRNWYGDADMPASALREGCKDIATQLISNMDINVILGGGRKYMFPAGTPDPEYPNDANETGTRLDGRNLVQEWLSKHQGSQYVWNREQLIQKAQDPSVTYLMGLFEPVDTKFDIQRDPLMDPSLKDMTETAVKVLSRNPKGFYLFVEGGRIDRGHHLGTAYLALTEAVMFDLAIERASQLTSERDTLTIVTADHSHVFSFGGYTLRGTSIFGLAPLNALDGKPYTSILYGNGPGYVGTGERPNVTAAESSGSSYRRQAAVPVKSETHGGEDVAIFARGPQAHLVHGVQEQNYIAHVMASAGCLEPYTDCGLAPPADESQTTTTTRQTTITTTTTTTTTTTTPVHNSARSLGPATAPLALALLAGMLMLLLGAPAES
Chain of DNA dC->dU-editing enzyme APOBEC-3A (P31941 whole entry): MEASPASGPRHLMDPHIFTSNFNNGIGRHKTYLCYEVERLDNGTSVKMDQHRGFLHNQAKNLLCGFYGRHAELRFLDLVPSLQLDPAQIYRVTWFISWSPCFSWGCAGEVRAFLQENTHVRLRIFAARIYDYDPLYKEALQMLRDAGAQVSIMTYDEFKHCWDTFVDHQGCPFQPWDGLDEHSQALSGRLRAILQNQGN

COc1cc2c(cc1OC)C1(CCCC1)CNC2c1cccc([N+](=O)[O-])c1 (stereo unspecified)
EC50 [1]: 8.91 µM (active)
IC50 [2]: > 32 µM
IC50 [3]: 5.26 µM (active)

O=S(=O)(c1cc(O)ccc1O)c1cccc2c(S(=O)(=O)c3cc(O)ccc3O)cccc12
IC50 [4]: 38.9 µM (active)
EC50 [5]: 15 µM (active)
IC50 [6]: 12.8 µM (active)
IC50 [7]: 5.39 µM (active)
IC50 [8]: 3.81 µM (active)
IC50 [9]: 8.31 µM (active)
IC50 [10]: > 66.6 µM (inactive)
IC50 [11]: > 109 µM (not active)

O=c1c2ccc(Cl)cc2nc(-c2cccc(C(F)(F)F)c2)n1O
EC50 [12]: 6.6 µM (active)
EC50 [13]: > 150 µM (inactive)
CC50 [14]: 2.96 µM (active)
EC50 [15]: 9.65 µM (active)
CC50 [16]: 5.29 µM (active)
EC50 [17]: 15.6 µM (active)
AC50 [18]: 28.2 µM (inconclusive)
IC50 [19]: 11 µM (active)
EC50 [20]: > 180 µM (inactive)
EC50 [21]: 10.4 µM (active)
EC50 [22]: > 195 µM (not active)
IC50 [23]: 6.27 µM (active)
CC50 [24]: 11.9 µM (active)
EC50 [25]: 0.605 µM (active)

O=C(Nc1ccc2nc(-c3ccco3)c(-c3ccco3)nc2c1)NC1CCCCC1
IC50 [26]: > 50 µM (inactive)

COc1ccc([N+](=O)[O-])cc1NC(=O)C(C)OC(=O)c1ccc(NC(N)=O)cc1 (stereo unspecified)
IC50 [27]: > 100 µM (inactive)
IC50 [28]: > 100 µM (inactive)

O=C(CN(Cc1cccs1)C(=O)c1cccnc1)NC1CCCCCC1
EC50 [29]: > 20 µM (inactive)

COc1ccccc1-n1c(S)nnc1-c1ccccc1
IC50 [30]: > 100 µM (inactive)
IC50 [31]: 4.11 µM (active)

CCn1c(O)c(N=NC(=O)c2cccc(S(=O)(=O)N3CCCCC3)c2)c2ccccc21
EC50 [32]: 2.37 µM (active)

CCCn1c(/C=C/c2ccccc2)nc2ccccc21
AC50 [33]: inconclusive
IC50 [34]: > 100 µM (inactive)

CCN(CC)S(=O)(=O)c1ccc(Cl)c(NC(=O)COC(=O)C2CCCCC2)c1
EC50 [35]: 0.026 µM (active)
EC50 [36]: 0.246 µM (active)
